Experimental data: ChEMBL document CHEMBL1777745, “Non-oxime pyrazole based inhibitors of B-Raf kinase” (Bioorg Med Chem Lett, 2011)
pIC50: −log10 of the molar value.

Legend:
[1] = target: T1, Serine/threonine-protein kinase B-raf (Homo sapiens, UniProt P15056); experiment: Inhibition of B-Raf
[2] = Apparent permeability from apical to basolateral side in human Caco2 cells; format: ADME, cell-based; conditions: caco-2
[3] = target: T1, Serine/threonine-protein kinase B-raf; experiment: Inhibition of B-Raf-mediated ERK phosphorylation in cell-based assay
Caco-2 = experiment: Efflux ratio of apparent permeability from […] in human Caco2 cells; format: ADME, cell-based
[4] = AUC in CD-1 mouse at 25 mg/kg, po; format: ADME, organism-based; parameters: dose 25 mg/kg, route oral; conditions: plasma
[5] = Volume of distribution at steady state in CD-1 mouse at 2.5 mg/kg, iv; format: ADME, organism-based; parameters: dose 2.5 mg/kg, route intravenous; conditions: in vivo, read-out: Vdss
[6] = AUC in CD-1 mouse at 2.5 mg/kg, iv; format: ADME, organism-based; parameters: dose 2.5 mg/kg, route intravenous; conditions: plasma
[7] = AUC in CD-1 mouse at 50 mg/kg, po; format: ADME, organism-based; parameters: dose 50 mg/kg, route oral; conditions: plasma
[8] = AUC in CD-1 mouse at 100 mg/kg, po; format: ADME, organism-based; parameters: dose 100 mg/kg, route oral; conditions: plasma
[9] = Clearance in CD-1 mouse at 2.5 mg/kg, iv; format: ADME, organism-based; parameters: dose 2.5 mg/kg, route intravenous; conditions: in vivo

T1 sequence (P15056 whole entry): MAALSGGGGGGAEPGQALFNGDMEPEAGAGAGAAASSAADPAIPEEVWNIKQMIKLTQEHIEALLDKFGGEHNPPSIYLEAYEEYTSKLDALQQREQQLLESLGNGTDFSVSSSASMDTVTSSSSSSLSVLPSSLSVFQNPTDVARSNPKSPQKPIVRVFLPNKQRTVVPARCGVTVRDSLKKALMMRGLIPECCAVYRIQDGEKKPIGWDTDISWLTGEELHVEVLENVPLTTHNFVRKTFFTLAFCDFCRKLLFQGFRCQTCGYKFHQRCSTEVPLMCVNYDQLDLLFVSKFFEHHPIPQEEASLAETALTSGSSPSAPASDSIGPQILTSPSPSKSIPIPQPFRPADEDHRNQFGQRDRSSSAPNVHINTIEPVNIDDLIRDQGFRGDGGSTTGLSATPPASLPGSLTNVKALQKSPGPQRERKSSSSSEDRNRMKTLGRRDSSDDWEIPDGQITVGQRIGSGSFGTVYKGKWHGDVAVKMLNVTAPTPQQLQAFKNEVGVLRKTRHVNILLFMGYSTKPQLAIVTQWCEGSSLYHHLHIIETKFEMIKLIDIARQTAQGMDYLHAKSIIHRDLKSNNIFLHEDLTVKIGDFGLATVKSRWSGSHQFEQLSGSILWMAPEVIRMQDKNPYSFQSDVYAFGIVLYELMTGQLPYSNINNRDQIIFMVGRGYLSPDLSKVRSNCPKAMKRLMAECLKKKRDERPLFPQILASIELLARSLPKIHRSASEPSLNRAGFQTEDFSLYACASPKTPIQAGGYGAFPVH

## CCc1c[nH]nc1-c1ccc(-c2cn(C)nc2-c2ccncc2)cc1
[1]
  pIC50: < 6.00

## Cn1cc(-c2ccc3c(c2)CCc2c[nH]nc2-3)c(-c2ccncc2)n1
[1]
  pIC50: 7.64

## Cn1cc(-c2ccc3c(c2)CCc2n[nH]cc2-3)c(-c2ccncc2)n1
[1]
  pIC50: < 6.00

## Cn1cc(-c2ccc3c(c2)Cc2n[nH]nc2-3)c(-c2ccncc2)n1
[1]
  pIC50: 7.96

## Cn1cc(-c2ccc(-c3c[nH]nn3)cc2)c(-c2ccncc2)n1
[1]
  pIC50: 7.26

## Cn1cc(-c2ccc(-c3cc[nH]c3)cc2)c(-c2ccncc2)n1
[1]
  pIC50: 6.10

## Cn1cc(-c2ccc3c(c2)CNC3=O)c(-c2ccncc2)n1
[1]
  pIC50: 7.03

## CNC(=O)c1ccc(-c2cn(C)nc2-c2ccncc2)cc1
[1]
  pIC50: 6.19

## Cn1cc(-c2ccc(S(N)(=O)=O)cc2)c(-c2ccncc2)n1
[1]
  pIC50: < 6.00

## Cn1cc(-c2cccc3[nH]ncc23)c(-c2ccncc2)n1
[1]
  pIC50: 6.33

## Cn1cc(-c2ccc3[nH]ncc3c2)c(-c2ccncc2)n1
[1]
  pIC50: < 6.00

## Cn1cc(-c2ccc3[nH]ccc3c2)c(-c2ccncc2)n1
[1]
  pIC50: 6.06

## Cn1cc(-c2ccc3cc[nH]c3c2)c(-c2ccncc2)n1
[1]
  pIC50: 6.48

## Cn1cc(-c2ccc3c(O)cccc3c2)c(-c2ccncc2)n1
[1]
  pIC50: 8.85

## Cn1cc(-c2ccc3cc(O)ccc3c2)c(-c2ccncc2)n1
[1]
  pIC50: 7.11

## Cn1cc(N)c(-c2ccncc2)n1
[1]
  pIC50: < 6.00

## Cn1cc(O)c(-c2ccncc2)n1
[1]
  pIC50: < 6.00

## c1cc(-c2nn(C3CCNCC3)cc2-c2ccc3c(c2)Cc2c[nH]nc2-3)ccn1
[2]
  Papp A→B: 1.88 ×10⁻⁶ cm/s
[3]
  pIC50: 6.64
Caco-2
  Ratio: 6.17

## CN1CCC(n2cc(-c3ccc4c(c3)Cc3c[nH]nc3-4)c(-c3ccncc3)n2)CC1
[3]
  pIC50: 6.05
[1]
  pIC50: 8.10

## c1cc(-c2nn(C3CC4CCC(C3)N4)cc2-c2ccc3c(c2)Cc2c[nH]nc2-3)ccn1 (configuration not stated)
[3]
  pIC50: 6.58
[1]
  pIC50: 9.24

## c1cc(-c2nn(C3CCCNC3)cc2-c2ccc3c(c2)Cc2c[nH]nc2-3)ccn1 (configuration not stated)
[3]
  pIC50: 5.78
[1]
  pIC50: 8.43

## c1cc(-c2nn(C3CCCNCC3)cc2-c2ccc3c(c2)Cc2c[nH]nc2-3)ccn1 (configuration not stated)
[3]
  pIC50: 5.81
[1]
  pIC50: 8.49

## N[C@H]1CC[C@H](n2cc(-c3ccc4c(c3)Cc3c[nH]nc3-4)c(-c3ccncc3)n2)CC1
[3]
  pIC50: 6.40
[1]
  pIC50: 9.18

## N[C@H]1CC[C@@H](n2cc(-c3ccc4c(c3)Cc3c[nH]nc3-4)c(-c3ccncc3)n2)CC1
[3]
  pIC50: 5.82
[1]
  pIC50: 7.64

## CNCCn1cc(-c2ccc3c(c2)Cc2c[nH]nc2-3)c(-c2ccncc2)n1
[3]
  pIC50: 5.09
[1]
  pIC50: 7.14

## O[C@@H]1CCC[C@H](n2cc(-c3ccc4c(c3)Cc3c[nH]nc3-4)c(-c3ccncc3)n2)C1
[3]
  pIC50: 6.22
[1]
  pIC50: 8.70

## c1ccc(-n2cc(-c3ccc4c(c3)Cc3c[nH]nc3-4)c(-c3ccncc3)n2)cc1
[3]
  pIC50: 5.36
[1]
  pIC50: 8.34

## O[C@@H]1CNCC[C@H]1n1cc(-c2ccc3c(c2)Cc2c[nH]nc2-3)c(-c2ccncc2)n1
[3]
  pIC50: 5.31
[1]
  pIC50: 8.31

## c1cc(-c2nn(C3CC4COCC(C3)N4)cc2-c2ccc3c(c2)Cc2c[nH]nc2-3)ccn1 (configuration not stated)
[3]
  pIC50: 6.21
[1]
  pIC50: 8.30

## F[C@H]1CNCC[C@H]1n1cc(-c2ccc3c(c2)Cc2c[nH]nc2-3)c(-c2ccncc2)n1
[3]
  pIC50: 6.39
[1]
  pIC50: 8.42

## F[C@H]1CCNC[C@H]1n1cc(-c2ccc3c(c2)Cc2c[nH]nc2-3)c(-c2ccncc2)n1
[3]
  pIC50: 5.67
[1]
  pIC50: 8.49

## F[C@H]1CNCC[C@@H]1n1cc(-c2ccc3c(c2)Cc2c[nH]nc2-3)c(-c2ccncc2)n1
[3]
  pIC50: 6.17
[1]
  pIC50: 8.90

## Cc1c[nH]nc1-c1ccc(-c2cn(C)nc2-c2ccncc2)cc1
[1]
  pIC50: 8.15

## Cn1cc(-c2ccc3cn[nH]c3c2)c(-c2ccncc2)n1
[1]
  pIC50: 6.86

## F[C@@H]1CNCC[C@H]1n1cc(-c2ccc3c(c2)Cc2c[nH]nc2-3)c(-c2ccncc2)n1 (stereo in doubt; 38)
[2]
  Papp A→B: 11.4 ×10⁻⁶ cm/s
[3]
  pIC50: 6.15
[4]
  AUC: 5160 ng·h/mL
[5]
  Vd: 8.74 L/kg
[6]
  AUC: 406 ng·h/mL
Caco-2
  Ratio: 1.55
[7]
  AUC: 13400 ng·h/mL
[1]
  pIC50: 8.85
[8]
  AUC: 38800 ng·h/mL
[9]
  clearance: 91.1 mL/min/kg

## F[C@@H]1CNCC[C@H]1n1cc(-c2ccc3c(c2)Cc2c[nH]nc2-3)c(-c2ccncc2)n1 (stereo in doubt; 41)
[3]
  pIC50: 6.27
[1]
  pIC50: 8.80
